Results from patent EP4273147A1, “SUBSTITUTED SPIROLACTAMS, SALTS THEREOF AND THEIR USE AS HERBICIDALLY ACTIVE SUBSTANCES” (Bayer Aktiengesellschaft, priority 2022, dated 2023).
Values belong to the compound of their own block, whether it stands above or below them.

Legend:
ABUTH [1] = assay: Herbicidal pre-emergence action (Table A1); type: in vivo, Abutilon theophrasti; conditions: application rate 1280 g/ha; visual grading after ca. 3 weeks vs untreated controls (100% = plants have died off, 0% = as control plants)
Summary of the method: (§1)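 Pots: sandy loam. Sowing: one mono- and one dicot weed species together per pot. Seeds covered with soil.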

TRZAS [2] = assay: Pre-emergence effects on crop plants (Table D2); type: in vivo, Triticum aestivum; conditions: crop plant; application rate 80 g/ha; visual grading after ca. 3 weeks
From the text: Seeds of mono- and dicotyledonous weed plants and crop plants were sown, in plastic or organic planting pots, in sandy loam and covered with soil. The compounds according to the invention, formulated in the form of wettable powders (WP) or as emulsifiable concentrates (EC), were applied to the surface of the covering soil as aqueous suspension or emulsion, with the addition of 0.5% of an additive, at an application rate of 600 1 of water/ha (converted).
Following treatment, the pots were placed in a greenhouse and kept under optimum growth conditions for the test plants.

ALOMY [3] = assay: Herbicidal pre-emergence action, section C (Table C2); type: in vivo, Alopecurus myosuroides; conditions: application rate 320 g/ha; visual grading after ca. 3 weeks
From the text: (§4) Seeds of mono- and dicotyledonous weed plants and crop plants were sown, in plastic or organic planting pots, in sandy loam and covered with soil. The compounds according to the invention, formulated in the form of wettable powders (WP) or as emulsifiable concentrates (EC), were applied to the surface of the covering soil as aqueous suspension or emulsion, with the addition of 0.5% of an additive, at an application rate of 600 1 of water/ha (converted). Following treatment, the pots were placed in a greenhouse and kept under optimum growth conditions for the test plants.

POAAN [4] = assay: Herbicidal post-emergence action (Table B7); type: in vivo, Poa annua; conditions: application rate 1280 g/ha
Summary of the method: (§2)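 Each pot held sandy loam sown with a single mono- or dicot weed species, grown under controlled greenhouse conditions. Test plants were sprayed at the one-leaf stage, and after about 3 weeks of further growth the percentage activity relative to untreated plants was rated visually.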

ABUTH [5] = assay: Herbicidal post-emergence action (Table B1); type: in vivo, Abutilon theophrasti; conditions: application rate 1280 g/ha; treated at one-leaf stage; rated visually after about 3 weeks vs untreated controls (100% = plants have died, 0% = like control plants)
Experimental: Seeds of mono- and dicotyledonous weed plants were placed in plastic pots in sandy loam soil (doubly sown with in each case one species of mono- or dicotyledonous weed plants per pot), covered with soil and cultivated in a greenhouse under controlled growth conditions. 2 to 3 weeks after sowing, the test plants were treated at the one-leaf stage. […] After the test plants had been kept in the greenhouse under optimum growth conditions for about 3 weeks, the activity of the preparations was rated visually in comparison to untreated controls. For example, 100% activity = the plants have died, 0% activity = like control plants.

MATIN [6] = assay: Herbicidal pre-emergence action (Table A4); type: in vivo, Matricaria inodora; conditions: application rate 320 g/ha; visual grading after ca. 3 weeks
Summary of the method: as §1

VERPE [7] = assay: Herbicidal pre-emergence action, section C (Table C11); type: in vivo, Veronica persica; conditions: application rate 320 g/ha; visual grading after ca. 3 weeks
BRSNW = assay: Post-emergence effects on crop plants (Table F5); type: in vivo, Brassica napus; conditions: crop plant BRSNW
From the text: (§3) 2 to 3 weeks after sowing, the test plants were sprayed in the single-leaf stage.

ORYZA [8] = assay: Pre-emergence effects on crop plants (Table D3); conditions: crop plant; application rate 80 g/ha; visual grading after ca. 3 weeks
ZEAMX [9] = assay: Pre-emergence effects on crop plants (Table D1); type: in vivo, Zea mays; conditions: crop plant; application rate 80 g/ha; visual grading after ca. 3 weeks
LOLRI [10] = assay: Herbicidal pre-emergence action, section C (Table C7); type: in vivo, Lolium rigidum; conditions: application rate 320 g/ha; visual grading after ca. 3 weeks
ECHCG [11] = assay: Herbicidal pre-emergence action (Table A2); type: in vivo, Echinochloa crus-galli; conditions: application rate 320 g/ha; visual grading after ca. 3 weeks
Summary of the method: as §1

STEME = assay: Herbicidal pre-emergence action (Table A6); type: in vivo, Stellaria media; conditions: application rate 320 g/ha; visual grading after ca. 3 weeks
Summary of the method: as §1

DIGSA [12] = assay: Herbicidal pre-emergence action (Table A12); type: in vivo, Digitaria sanguinalis; conditions: application rate 320 g/ha; visual grading after ca. 3 weeks
Summary of the method: as §1

VIOTR [13] = assay: Herbicidal post-emergence action, section E (Table E10); type: in vivo, Viola tricolor; conditions: application rate 320 g/ha; assessed visually after ca. 3 weeks
From the text: as §3

SETVI [14] = assay: Herbicidal pre-emergence action, section C (Table C10); type: in vivo, Setaria viridis; conditions: visual grading after ca. 3 weeks
MATIN [15] = assay: Herbicidal pre-emergence action, section C (Table C8); type: in vivo, Matricaria inodora; conditions: application rate 320 g/ha; visual grading after ca. 3 weeks
SETVI [16] = assay: Herbicidal pre-emergence action (Table A5); type: in vivo, Setaria viridis; conditions: application rate 320 g/ha; visual grading after ca. 3 weeks
Summary of the method: as §1

GLXMA = assay: Post-emergence effects on crop plants (Table F4); type: in vivo, Glycine max; conditions: application rate 80 g/ha, crop plant GLXMA
From the text: as §3

POLCO = assay: Herbicidal pre-emergence action, section C (Table C9); type: in vivo, Polygonum convolvulus; conditions: visual grading after ca. 3 weeks
From the text: as §4

ECHCG [17] = assay: Herbicidal pre-emergence action, section C (Table C6); type: in vivo, Echinochloa crus-galli; conditions: visual grading after ca. 3 weeks
VIOTR [18] = assay: Herbicidal pre-emergence action, section C (Table C12); type: in vivo, Viola tricolor; conditions: application rate 80 g/ha; visual grading after ca. 3 weeks
AMARE = assay: Herbicidal pre-emergence action (Table A8); type: in vivo, Amaranthus retroflexus; conditions: application rate 1280 g/ha; visual grading after ca. 3 weeks vs untreated controls (100% = plants have died off, 0% = as control plants)
From the text: Seeds of mono- and dicotyledonous weed plants were sown in plastic pots (double sowings with one species of mono- and one species of dicotyledonous weed plants per pot), in sandy loam, and covered with soil.

TRZAS [19] = assay: Post-emergence effects on crop plants (Table F2); type: in vivo, Triticum aestivum; conditions: application rate 320 g/ha, crop plant TRZAS
From the text: as §3

SETVI [20] = assay: Herbicidal post-emergence action (Table B8); type: in vivo, Setaria viridis; conditions: application rate 1280 g/ha
Summary of the method: as §2

POAAN [21] = assay: Herbicidal pre-emergence action (Table A7); type: in vivo, Poa annua; conditions: application rate 320 g/ha; visual grading after ca. 3 weeks
Summary of the method: as §1

ORYZA [22] = assay: Post-emergence effects on crop plants (Table F3); type: in vivo, Oryza sativa; conditions: application rate 320 g/ha, crop plant ORYZA
From the text: as §3

ZEAMX [23] = assay: Post-emergence effects on crop plants (Table F1); type: in vivo, Zea mays; conditions: crop plant ZEAMX
From the text: as §3

DIGSA [24] = assay: Herbicidal pre-emergence action, section C (Table C5); type: in vivo, Digitaria sanguinalis; conditions: application rate 320 g/ha; visual grading after ca. 3 weeks
VERPE [25] = assay: Herbicidal pre-emergence action (Table A11); type: in vivo, Veronica persica; conditions: application rate 1280 g/ha; visual grading after ca. 3 weeks
Summary of the method: as §1

LOLRI [26] = assay: Herbicidal pre-emergence action (Table A3); type: in vivo, Lolium rigidum; conditions: application rate 320 g/ha; visual grading after ca. 3 weeks
Summary of the method: as §1

ABUTH [27] = assay: Herbicidal pre-emergence action, section C (Table C1); type: in vivo, Abutilon theophrasti; conditions: application rate 320 g/ha; visual grading after ca. 3 weeks
ALOMY [28] = assay: Herbicidal pre-emergence action (Table A9); type: in vivo, Alopecurus myosuroides; conditions: application rate 1280 g/ha; visual grading after ca. 3 weeks
Summary of the method: as §1

ECHCG [29] = assay: Herbicidal post-emergence action, section E (Table E5); type: in vivo, Echinochloa crus-galli; conditions: application rate 320 g/ha; assessed visually after ca. 3 weeks
From the text: as §3

pre-emergence activity against TRZAS (TRZAS [2]): 0%
pre-emergence activity against ORYZA (ORYZA [8]): 0%
pre-emergence activity against ZEAMX (ZEAMX [9]): 0%
Structure (SMILES): O=C1N(Cc2ccccc2F)CCCC12CCN(Cc1ccccc1F)C2=O (racemic) [I-026]
pre-emergence activity against ABUTH (ABUTH [1]): 90%
pre-emergence activity against ALOMY (ALOMY [3]): 100%
post-emergence activity against POAAN (POAAN [4]): 90%
post-emergence activity against ABUTH (ABUTH [5]): 90%
pre-emergence activity against MATIN (MATIN [6]): 90%
pre-emergence activity against VERPE (VERPE [7]): 80%
post-emergence activity against BRSNW (BRSNW; application rate 80 g/ha): 0%
pre-emergence activity against LOLRI (LOLRI [10]): 100%
pre-emergence activity against ECHCG (ECHCG [11]): 100%
pre-emergence activity against STEME (STEME): 90%
pre-emergence activity against DIGSA (DIGSA [12]): 100%
post-emergence activity against VIOTR (VIOTR [13]): 80%
pre-emergence activity against SETVI (SETVI [14]; application rate 80 g/ha): 100%
pre-emergence activity against MATIN (MATIN [15]): 90%
pre-emergence activity against SETVI (SETVI [16]): 100%
post-emergence activity against GLXMA (GLXMA): 0%
pre-emergence activity against POLCO (POLCO; application rate 80 g/ha): 80%
pre-emergence activity against ECHCG (ECHCG [17]; application rate 80 g/ha): 100%
pre-emergence activity against VIOTR (VIOTR [18]): 90%
pre-emergence activity against AMARE (AMARE): 90%
post-emergence activity against TRZAS (TRZAS [19]): 0%
post-emergence activity against SETVI (SETVI [20]): 90%
pre-emergence activity against POAAN (POAAN [21]): 100%
post-emergence activity against ORYZA (ORYZA [22]): 0%
post-emergence activity against ZEAMX (ZEAMX [23]; application rate 80 g/ha): 0%
pre-emergence activity against DIGSA (DIGSA [24]): 100%
pre-emergence activity against VERPE (VERPE [25]): 90%
pre-emergence activity against LOLRI (LOLRI [26]): 100%
pre-emergence activity against ABUTH (ABUTH [27]): 80%
pre-emergence activity against ALOMY (ALOMY [28]): 100%

Structure (SMILES): O=C1N(Cc2cc(F)c(F)cc2F)CCCC12CCCN(Cc1cc(F)c(F)cc1F)C2=O (single isomer, unassigned; (+)) [I-215, (+)-2,8-bis(2,4,5-trifluorophenylmethyl)-2,8-diazaspiro[5.5]undecane-1,7-dione]
pre-emergence activity against ALOMY (ALOMY [3]): 100%
pre-emergence activity against VERPE (VERPE [7]): 80%
post-emergence activity against BRSNW (BRSNW; application rate 320 g/ha): 0%
post-emergence activity against VIOTR (VIOTR [13]): 80%
pre-emergence activity against SETVI (SETVI [14]; application rate 320 g/ha): 100%
pre-emergence activity against POLCO (POLCO; application rate 320 g/ha): 80%
pre-emergence activity against ECHCG (ECHCG [17]; application rate 320 g/ha): 100%
pre-emergence activity against VIOTR (VIOTR [18]): 90%
post-emergence activity against TRZAS (TRZAS [19]): 0%
post-emergence activity against ZEAMX (ZEAMX [23]; application rate 320 g/ha): 0%
pre-emergence activity against DIGSA (DIGSA [24]): 100%
post-emergence activity against ECHCG (ECHCG [29]): 90%
